What was measured:
[1] = tested on: mouse model of acute lung injury; experiment: Second modified acute lung injury plus hyperthermia study (Example 8); conditions: for Tolerability of three days of repeat dosing: mouse, in vivo
Procedure: Lung lavage fluid was measured and cytokine analysis. Statistics was one-way ANOVA followed by Tukey's multiple comparison post hoc test for data with normal distribution; Kruskal-Wallis test followed by Dunn's multiple comparison post hoc test for data with skewed distribution; and the ROUT method for identifying outliers. Control or drug administered for 3 days, then LPS at 50 μL of 1 mg/ml delivered intratracheally with a Penn Century needle where a core temperature of 39 C at 24 hours post LPS and then sacrifice to measure lung lavage fluid protein concentration and serum cytokine levels.
The same procedure was used as in Example 7. Starting three days before the induction of lung injury, groups of six CD-1 mice each were treated prophylactically with vehicle or 92.4 mg/kg denatonium acetate (DA) (administered by twice-daily (BID) oral gavage (PO)) or with 3 mg/kg DA (administered by once-daily (QD) intraperitoneal (IP) injection). On Day 0, lung injury was induced by intratracheal instillation with 50 μL of 1 mg/mL bacterial lipopolysaccharide (LPS), and hyperthermia was induced by placing the animals in a 39° C. incubator. On Day 1 (i.e., 24 hours after induction), animals were euthanized and bronchoalveolar lavage fluid (BALF) was collected. The BALF specimens were assessed for cytokine concentrations (using a multiplex bead-based assay), and protein levels, and neutrophil counts (by fluorescence-activated cell sorting (FACS)). Additionally, lungs were collected, fixed, stained with Masson's trichrome, and assessed histologically.

diet-induced (DIO) mice = experiment: Body weight study in diet-induced (DIO) mice (Example 9); assay type: in vivo, C57BL/6NTac mice
Procedure: This example provides results of a study of DA plus another compound (CQL) on body weight in diet-induced (DIO) mice. Adult C57BL/6NTac mice were fed with a high fat diet (60%). […] The study period was for 56 days+2-3 days testing period afterward. Body weight change measure 3× per week, food and water consumption on days 0, 12, 28, 42 and 56. Metabolic biomarkers were measured on days 28 and 56. Cytokine analysis on Days 28 and 56. Serum levels of GLP-1, GLP-2, and CCK at 1 h after dosing on Days 1 and 56, and at 2 h after dosing on Day 7 (dosing (>6 h fasting prior to dosing until after blood collection); and serum level of PPY on Day 56.

[2] = tested on: mouse acute lung injury plus hyperthermia model; experiment: Mouse acute lung injury plus hyperthermia model (Example 7); assay type: in vivo; conditions: LPS plus hyperthermia, CD-1 mice
Procedure: Lung lavage fluid was measured and cytokine analysis.

[3] = tested on: DSS-induced colitis in mice; experiment: Dextran sulfate sodium (DSS)-induced colitis in mice (Example 3); assay type: in vivo
Excerpt: This example provides the results of an in vivo study in a dextran sulfate sodium (DSS)-induced colitis in mice model. Inflammatory bowel diseases (IBD), mainly comprising ulcerative colitis and Crohn's Disease, are complex and multifactorial diseases with unknown etiology. To study human IBD mechanistically, a number of murine models of colitis have been developed. These models are tools to decipher underlying mechanisms of IBD pathogenesis as well as to evaluate potential therapeutics. […] Moreover, many existing IBD-approved drugs have been studied in this model to allow a comparison of new potential drug compounds as compared with existing drugs with approved IBD indications. […] mice were divided into 5 groups of 3-10 mice, provided with standard mouse chow diet ad libitum, and housed up to 5 per cage. Dexamethasone 21-phosphate disodium salt (DMS; Alfa Aesar Catalog #J64083-1G, Lot R02F035) (was used as a positive control. Hemoccult kits were obtained from Beckman (Hemoccult SENSA kit). Dextran sodium sulfate (DSS) reagent grade (MPI Catalog #160110, Lot #6046H, MW 36,000-50,000, CAS 9011-18-1) was supplemented in the water of certain groups to induced IBD-like symptoms. On day −3 treatment began prior to DSS delivery. On day 1 all mice were pre-weighed and given fresh 4-5% DSS in water every day for 5 days and water is then given for the remainder of the study to elicit disease. An additional control group was given water (no DSS) for the duration of the study (10 days). Body weight was measured daily, fecal blood status (hemoccult) was measured 3× per week, fecal consistency 3× per week and general health determined daily. Mice were sacrificed on day 10 and serum obtained for cytokine analysis and colon length and weight determined. There were two control groups of water only and DSS without drug treatment. There were two treatment groups at 69.3 mg/kg (n=10) bid and 23.1 mg/kg bid (n=10).

[4] = oral 92.4 mg/kg BID, vs vehicle
[5] = DA 92.4 mg/kg gavage BID, vs vehicle
[6] = DA 92.4 mg/kg gavage BID, vs vehicle, no significant difference
[7] = gavage BID (DA 92.4 mg/kg, CQL 50 mg/kg)
[8] = high-dose DA, no significant difference

## CC(=O)[O-].CC[N+](CC)(CC(=O)Nc1c(C)cccc1C)Cc1ccccc1 [DA, denatonium acetate]
[1]; 92.4 mg/kg PO group, within 24 h after LPS instillation, also one vehicle-dosed, not attributed to test article
  Mice found dead on Day 1: one
[1]; IP 3 mg/kg QD
  BALF neutrophil counts (by FACS assay): nominal decreases
  BALF protein concentrations: nominal (but nonsignificant) changes
  Number of 32 tested BALF cytokines significantly decreased compared to vehicle: 10
  Severity of lung pathology (by histological scoring): nominal decreases
[1]; IP 3 mg/kg QD, vs vehicle
  G-CSF concentration in BALF: significant decreases
  IL2 concentration in BALF: significant decreases
  IL-3 concentration in BALF: significant decreases
  IL-4 concentration in BALF: significant decreases
  IL-13 concentration in BALF: significant decreases
  IP-10 concentration in BALF: significant decreases
  M-CSF concentration in BALF: significant decreases
  MCP-1 concentration in BALF: significant decreases
  MIG concentration in BALF: significant decreases
  eotaxin concentration in BALF: significant decreases
[1]; ip, 3 mg/kg
  Tolerability of three days of repeat dosing: well-tolerated
[1]; po, 92.4 mg/kg
  Tolerability of three days of repeat dosing: well-tolerated
[1]; oral 92.4 mg/kg BID
  BALF neutrophil counts (by FACS assay): nominal decreases
  BALF protein concentrations: nominal (but nonsignificant) changes
  Number of 32 tested BALF cytokines significantly decreased compared to vehicle: 7
  Severity of lung pathology (by histological scoring): nominal decreases
[1]; [4]
  IL-2 concentration in BALF: significant decreases
  IL-3 concentration in BALF: significant decreases
  IL-10 concentration in BALF: significant decreases
  IL-13 concentration in BALF: significant decreases
  MCSF concentration in BALF: significant decreases
  MIG concentration in BALF: significant decreases
diet-induced (DIO) mice; DA 92.4 mg/kg gavage BID
  Serum glucose levels: did not show a significant effect
diet-induced (DIO) mice; DA 92.4 mg/kg gavage BID, 1 h after dosing, vs vehicle
  Serum GLP-1 levels at Day 56: significantly increased
diet-induced (DIO) mice; DA 92.4 mg/kg gavage BID, 2 h after dosing, vs vehicle
  Serum GLP-1 levels at Day 7: significantly increased
diet-induced (DIO) mice; DA 92.4 mg/kg gavage BID, compared to vehicle and CQL
  Body weight gain at day 57: significantly reduced
diet-induced (DIO) mice; [5]
  Serum CCK levels at Day 56: significantly increased
  Serum GLP-2 levels at Day 56: significantly increased
  Serum PYY levels at Day 56: significantly increased
  Serum insulin level at Day 28: significantly reduced
diet-induced (DIO) mice; [6]
  Serum LDL levels at day 28: noticeable decrease
  Serum LDL levels at day 56: noticeable decrease
diet-induced (DIO) mice; [7]
  Serum HbA1c level at Day 28: significantly reduced
  Serum HbA1c level at Day 56: considerably increased
diet-induced (DIO) mice; gavage BID (DA 92.4 mg/kg, CQL 50 mg/kg), vs vehicle
  Daily water intake at Day 28: significantly increased
[2]; iv bolus 3 mg/kg QD
  Protein concentration in lung lavage fluid: drastic but not significantly reduced
[2]; oral 92.4 mg/kg BID
  Protein concentration in lung lavage fluid: drastic but not significantly reduced
[3]; 69.3 mg/kg BID, vs vehicle
  Body weight at day 10: significant effect against DSS-induced body weight loss
[3]; DA treatment
  Combined fecal score during the study period: significant main effect
  Fecal consistency score during the study period: significant main effect
  Fecal occult blood scores during the study period: significant main effect
[3]; [8]
  Colon length at day 10: could counteract DSS-induced decrease
  Colon weight at day 10: could counteract DSS-induced decrease
[3]; high-dose DA, no significant effect
  Spleen weight at day 10: trend to counteract DSS-induced spleen weight loss

From patent US20230096528A1, “Pharmaceutical Composition for Treatment or Prevention of Multiple Inflammatory disorders” (priority 2019, published 2023)
